Species: Rattus norvegicus
Experiment: DrugMatrix - Regimen: Daily Repeat
Type: toxicity, organism-based, Sprague-Dawley
Design: regimen Daily Repeat, gender Male, age 6-8 weeks
Settings: in vivo, po, route oral GAVAGE, vehicle 100 % SALINE; for ALBUMIN / ALKALINE PHOSPHATASE / ASPARTATE AMINOTRANSFERASE / BLOOD UREA NITROGEN / CARBON DIOXIDE / CHLORIDE / CHOLESTEROL / CREATINE PHOSPHOKINASE / CREATININE / GLUCOSE / LACTATE DEHYDROGENASE / LIPASE / PHOSPHORUS / SODIUM / TOTAL BILIRUBIN / TOTAL PROTEIN / ALANINE AMINOTRANSFERASE: tissue Plasma; for ABSOLUTE BASOPHIL / ABSOLUTE EOSINOPHIL / ABSOLUTE LYMPHOCYTE / ABSOLUTE MONOCYTE / ABSOLUTE SEGMENTED NEUTROPHIL / BASOPHIL / EOSINOPHIL / ERYTHROCYTE COUNT / HEMATOCRIT / HEMOGLOBIN / LEUKOCYTE COUNT / LYMPHOCYTE / MEAN CORPUSCULAR HEMOGLOBIN / MEAN CORPUSCULAR HEMOGLOBIN CONCENTRATION / MONOCYTE / NEUTROPHIL / NUCLEATED RED BLOOD CELLS / PLATELET COUNT: tissue Blood
[1] = 700 mg/kg, 72 h, dose level Low, time 3 day
[2] = 700 mg/kg, […], dose level Low, time 7 day
[3] = 1400 mg/kg, 72 h, dose level High, time 3 day
[4] = 1400 mg/kg, 120 h, dose level High, time 5 day

CN(C)C=O [DIMETHYLFORMAMIDE]
ALBUMIN [1]: 3.93 G/DL
ALKALINE PHOSPHATASE [1]: 282 u/L
ASPARTATE AMINOTRANSFERASE [1]: 140.33 u/L
BLOOD UREA NITROGEN [1]: 11.33 mg/dL
CARBON DIOXIDE [1]: 29.33 mmol/L
CHLORIDE [1]: 98.33 MEQ/L
CHOLESTEROL [1]: 93.83 mg/dL
CREATINE PHOSPHOKINASE [1]: 256.33 u/L
CREATININE [1]: 0.18 mg/dL
GLUCOSE [1]: 142 mg/dL
LACTATE DEHYDROGENASE [1]: 131.83 u/L
LIPASE [1]: 10.17 u/L
PHOSPHORUS [1]: 10.13 mg/dL
SODIUM [1]: 143.05 MEQ/L
TOTAL BILIRUBIN [1]: 0.2 mg/dL
TOTAL PROTEIN [1]: 5.9 G/DL
ABSOLUTE BASOPHIL [2]: 0 CELLS/uL
ABSOLUTE EOSINOPHIL [2]: 0 CELLS/uL
ABSOLUTE LYMPHOCYTE [2]: 8451.4 CELLS/uL
ABSOLUTE MONOCYTE [2]: 140.6 CELLS/uL
ABSOLUTE SEGMENTED NEUTROPHIL [2]: 648 CELLS/uL
BASOPHIL [2]: 0%
EOSINOPHIL [2]: 0%
ERYTHROCYTE COUNT [2]: 5.61 x10E6/uL
HEMATOCRIT [2]: 35.36%
HEMOGLOBIN [2]: 14.32 G/DL
LEUKOCYTE COUNT [2]: 9.24 x10E3/uL
LYMPHOCYTE [2]: 91%
MEAN CORPUSCULAR HEMOGLOBIN [2]: 25.62 pg
MEAN CORPUSCULAR HEMOGLOBIN CONCENTRATION [2]: 40.5 G/DL
MONOCYTE [2]: 1.6%
NEUTROPHIL [2]: 7.4%
NUCLEATED RED BLOOD CELLS [2]: 0 /100WBC
PLATELET COUNT [2]: 1220.6 x10E3/uL
ALANINE AMINOTRANSFERASE [2]: 100.4 u/L
ALBUMIN [2]: 4.46 G/DL
ALKALINE PHOSPHATASE [2]: 218 u/L
ASPARTATE AMINOTRANSFERASE [2]: 142.4 u/L
BLOOD UREA NITROGEN [2]: 16.4 mg/dL
CARBON DIOXIDE [2]: 30 mmol/L
CHLORIDE [2]: 98.6 MEQ/L
CHOLESTEROL [2]: 102 mg/dL
CREATINE PHOSPHOKINASE [2]: 220.4 u/L
CREATININE [2]: 0.23 mg/dL
GLUCOSE [2]: 122.8 mg/dL
LACTATE DEHYDROGENASE [2]: 232.2 u/L
LIPASE [2]: 11 u/L
PHOSPHORUS [2]: 12.18 mg/dL
SODIUM [2]: 145.44 MEQ/L
TOTAL BILIRUBIN [2]: 0.2 mg/dL
TOTAL PROTEIN [2]: 6.06 G/DL
ABSOLUTE BASOPHIL [3]: 0 CELLS/uL
ABSOLUTE EOSINOPHIL [3]: 0 CELLS/uL
ABSOLUTE LYMPHOCYTE [3]: 16367 CELLS/uL
ABSOLUTE MONOCYTE [3]: 177 CELLS/uL
ABSOLUTE SEGMENTED NEUTROPHIL [3]: 1156 CELLS/uL
BASOPHIL [3]: 0%
EOSINOPHIL [3]: 0%
ERYTHROCYTE COUNT [3]: 6.79 x10E6/uL
HEMATOCRIT [3]: 42.9%
HEMOGLOBIN [3]: 16.15 G/DL
LEUKOCYTE COUNT [3]: 17.7 x10E3/uL
LYMPHOCYTE [3]: 92.5%
MEAN CORPUSCULAR HEMOGLOBIN [3]: 23.8 pg
MEAN CORPUSCULAR HEMOGLOBIN CONCENTRATION [3]: 37.65 G/DL
MONOCYTE [3]: 1%
NEUTROPHIL [3]: 6.5%
NUCLEATED RED BLOOD CELLS [3]: 0 /100WBC
PLATELET COUNT [3]: 447 x10E3/uL
ALANINE AMINOTRANSFERASE [3]: 1328 u/L
ALBUMIN [3]: 4.1 G/DL
ALKALINE PHOSPHATASE [3]: 424 u/L
ASPARTATE AMINOTRANSFERASE [3]: 1614.5 u/L
BLOOD UREA NITROGEN [3]: 20 mg/dL
CARBON DIOXIDE [3]: 33 mmol/L
CHLORIDE [3]: 99.5 MEQ/L
CHOLESTEROL [3]: 70.5 mg/dL
CREATINE PHOSPHOKINASE [3]: 326.5 u/L
CREATININE [3]: 0.47 mg/dL
GLUCOSE [3]: 210.5 mg/dL
LACTATE DEHYDROGENASE [3]: 461 u/L
LIPASE [3]: 11 u/L
PHOSPHORUS [3]: 9 mg/dL
SODIUM [3]: 148.05 MEQ/L
TOTAL BILIRUBIN [3]: 0.35 mg/dL
TOTAL PROTEIN [3]: 5.8 G/DL
ABSOLUTE BASOPHIL [4]: 0 CELLS/uL
ABSOLUTE EOSINOPHIL [4]: 0 CELLS/uL
ABSOLUTE LYMPHOCYTE [4]: 7335 CELLS/uL
ABSOLUTE MONOCYTE [4]: 49.5 CELLS/uL
ABSOLUTE SEGMENTED NEUTROPHIL [4]: 565.5 CELLS/uL
BASOPHIL [4]: 0%
EOSINOPHIL [4]: 0%
ERYTHROCYTE COUNT [4]: 7.28 x10E6/uL
HEMATOCRIT [4]: 45.7%

From ChEMBL document CHEMBL3885881, “DrugMatrix”
